Format in all cases: in vivo, human
The subject of assay [1] is patients with menstrual abnormalities. Description: Treatment of patients with abnormal menstruation, oral PQQ vs placebo, 3 months. To be noted: experimental group. How it is done:
Experiment number: 100 peoples diagnosed with menstrual abnormalities, 50 people in the experimental group and the control group each. Experimental method: administering PQQ orally to the patients of experimental group, administering placebo orally to the patients of control group. The duration of the experiment was 3 months, and menstrual conditions (duration of menstrual, consumption and weights of sanitary napkin) were measured and recorded.

The test system of assay [2] is patients with primary dysmenorrhea. Nature of the assay: Treatment of patients with primary dysmenorrhea, oral PQQ vs placebo, 3 months. To be noted: for Proportion of people with alleviation in primary dysmenorrhea (self-assessment): 50 people. From the text:
Experiment number: 100 people have been diagnosed with primary dysmenorrhea, 50 people in the experimental group and the control group. Experimental method: administering PQQ orally to the patients of experimental group, administering placebo orally to the patients of control group. The duration of the experiment was 3 months, and menstrual pain was asked and recorded.

Assay [3] deals with patients with secondary dysmenorrhea. Nature of the assay: Treatment of patients with secondary dysmenorrhea, oral PQQ vs placebo, 3 months. As to conditions: for Proportion of people with alleviation in secondary dysmenorrhea: 50 people. How it is done: Experiment number: 100 peoples have been diagnosed with secondary dysmenorrhea, with 50 peoples in the experimental group and the control group each. Experimental method: administering PQQ orally to the patients of experimental group, administering placebo orally to the patients of control group. The duration of the experiment was 3 months, and menstrual pain and pregnancy were asked and recorded. The dysmenorrhea index is determined based on the VAS scoring standard, which means patients self-evaluate the intensity of pain and the degree of psychologically unpleasant experience according to the degree of pain they feel, including: • 0 points: no pain; • 1-3 points: mild pain; • 4-6 points: moderate pain; • 7-9 points: severe pain; • 10 points: unbearable pain.

In the case of `O=C(O)c1cc(C(=O)O)c2c(n1)C(=O)C(=O)c1cc(C(=O)O)[nH]c1-2` [PQQ, 4,5-dioxo-1H-pyrrolo[2,3-f]quinoline-2,7,9-tricarboxylic acid], the “average monthly menstrual bleeding duration after treatment” value in assay [1] (3 months oral, FIG. 2) is recorded as “about 1 week”. For the same compound, in assay [1] (3 months oral, FIG. 3 (sanitary napkin consumption)), the “decrease of average amount of menstrual bleeding” value is recorded as “more than 30%”. Also, the “average monthly menstrual bleeding duration at beginning of the experiment” value in assay [1] (baseline, FIG. 2) was “about 2 weeks”. Moreover, the “Proportion of people with alleviation in primary dysmenorrhea (self-assessment)” value in assay [2] (evaluation time 1 month) was 98%; in assay [2] (evaluation time 3 months) it was 100%. For the same compound, in assay [2] (experimental group, 3 months), the “dysmenorrhea index alleviated compared to beginning of the experiment” value was 100%. Further, the “average dysmenorrhea index (VAS score) change” value in assay [3] (FIG. 1, during treatment) was “decreased significantly”. Further, the “Proportion of people with alleviation in secondary dysmenorrhea” value in assay [3] (evaluation time 1 month) came out at 82%; in assay [3] (evaluation time 3 months), 100%. Further, in assay [3] (experimental group of 50, 3 months), the “cases that became pregnant” value was found to be 2 cases. Besides, the “dysmenorrhea index alleviated compared to the beginning of the experiment” value in assay [3] (experimental group, 3 months) turned out to be 100%.

The values are drawn from US20230398109A1, “USE OF PQQ AND DERIVATIVE THEREOF” (GUANGZHOU HUTONGYOUWU BIOTECHNOLOGY CO., LTD, priority 2021, published 2023).
